Patent US20250025429A1, “LIPID NANOPARTICLES FOR OLIGONUCLEOTIDE DELIVERY” (ZIPHIUS NV, priority 2021, published 2025)

Assays:
[1] = saRNA encapsulation, Quant-IT RiboGreen assay; type: physicochemical; details: LNP with saRNA; RiboGreen with or without 2% Triton X-100
Experimental: The saRNA loading in LNP formulations was quantified using a Quant-IT RiboGreen assay (Thermo Fisher Scientific, Waltham, Massachusetts, USA) as previously described. 14 samples were diluted tenfold in 1× Tris HCL—EDTA (TE) buffer (10 mM Tris-HCL, 1 mM EDTA, pH 7.5) with or without 2% (v/v) Triton X-100 (Sigma-Aldrich, Saint Louis, Missouri, USA). Standard solutions were also prepared in 1×TE with or without 2% (v/v) Triton X-100 to account for any variation in fluorescence. The assay was performed according to the manufacturer's protocol. Samples were loaded on a black 96-well plate and analysed for fluorescence on a microplate reader (Tecan Infinite@200 PRO) at an excitation of 485 nm and emission at 528 nm. Encapsulation efficiency was calculated between 80-100%.

luciferase saRNA = assay: In vivo bioluminescent imaging after intramuscular injection of LNP-formulated luciferase saRNA; details: female SWISS mice, 1 μg luciferase saRNA intramuscularly
Experimental: (§1) Female SWISS mice (6 weeks old) were purchased from Janvier Laboratories (Paris, France) and kept in individually ventilated cages with access to food and water ad libitum. Mice were anesthetized with isoflurane (Zoetis, Louvain-La-Neuve, Belgium) (5% for induction and 2% for maintenance) and intramuscularly injected with a total of 1 μg in 100 μL Tris-HCL (50 μL per leg) LNP-formulated luciferase saRNA (for each group n=7). The expression of the luciferase induced bioluminescence was measured via non-invasive In vivo bioluminescent imaging (In vivo Imaging System (IVIS) Lumina III, Perkin Elmer, Waltham, Massachusetts, USA), 10 minutes after subcutaneous injection of 200 μL of D-luciferin (GoldBio, Saint Louis, Missouri, USA, #LUCK-1G) were measured in day 0 (before injection), day 1, day 3, day 5, day 7, day 10, day 15 and day 20. Table 4 and 5 report on the in vivo study using exemplary compounds 10-21, 10-44 and 10-45 and comparator lipids C12-200 and C1. […] Table 5 supports good tolerability of the compounds according to formula I.

[2] = Body weight of mice in the in vivo study (tolerability); details: female SWISS mice, 1 μg LNP-formulated saRNA intramuscularly
Experimental: as §1

[3] = LNP characterisation by Zeta Sizer (particle size, polydispersity, charge); type: physicochemical; details: LNP with saRNA; lipid:DOPE:Cholesterol:DMG-PEG 35:20:43.5:1.5; N/P approximately 40/1
Experimental: Cationic lipids, DOPE, Cholesterol and DMG-PEG lipid were solubilized in ethanol or DMSO at a molar ratio of 35:20:43.5:1.5 and a concentration of 100:25:20:25 μg/μL for C12-200 or 170:25:20:25 μg/μL for the comparator lipids. Lipid nanoparticles (LNP) were prepared by targeting an N/P ratio of approximately 40/1 with saRNA. Briefly, the saRNA was diluted to 0.5 mg/mL in 5 mM citrate buffer, pH 4.5. Microfluidic mixer (Ignite from Precision Nanosystems, California, USA) was used to mix the lipid solution with the saRNA aqueous solution at a ratio of about 1:3 (vol/vol) with total flow rates above 10 ml/min. The ethanol was then removed, and the external buffer replaced with 10 mM TRIS-HCL, pH 7.4, by dialysis. Finally, the lipid nanoparticles were filtered through a 0.2 μm pore sterile filter. Lipid nanoparticle particle size was 50-150 nm diameter and polydispersity index (PI) of 0.1-0.4 as determined by Zeta Sizer (Malvern Panalytical, UK). The charge of the formulation was also measured by Zeta Sizer and ranged between 20 to −20 mV.

SMILES | Encapsulation (%) [1] | Bioluminescence expression of LNPs (luciferase saRNA; Day 0 (before injection)) | Bioluminescence expression of LNPs (luciferase saRNA; Day 1) | Bioluminescence expression of LNPs (luciferase saRNA; Day 3) | Bioluminescence expression of LNPs (luciferase saRNA; Day 5) | Bioluminescence expression of LNPs (luciferase saRNA; Day 7) | Bioluminescence expression of LNPs (luciferase saRNA; Day 10) | Bioluminescence expression of LNPs (luciferase saRNA; Day 15) | Bioluminescence expression of LNPs (luciferase saRNA; Day 20) | Weight ([2]; Day 0 (before injection)) | Weight ([2]; Day 1) | Weight ([2]; Day 3) | Weight ([2]; Day 5) | Weight ([2]; Day 7) | Weight ([2]; Day 10) | Weight ([2]; Day 15) | Weight ([2]; Day 20) | Polydispersity Index (PI) [3] | Z-average (nm) [3] | Zetapotential (mV) [3]
CCCCCCC(CCCC)C(=O)OCCCCN(CCCCOC(=O)C(CCCC)CCCCCC)CCN1CCN(CCNCCN)CC1 (stereo not shown) [Compound 10-45, ((2-(4-(2-((2-aminoethyl)amino)ethyl)piperazin-1-yl)ethyl)azanediyl)bis(butane-4,1-diyl) bis(2-butyloctanoate)] | 100.49% | 6.00E+04 | 1.09E+07 | 1.90E+07 | 1.72E+07 | 1.68E+07 | 7.02E+05 | 7.94E+04 | 8.63E+04 | 26.93 g | 25.79 g | 26.43 g | 27.10 g | 27.27 g | 27.69 g | 28.19 g | 30.21 g | 0.1 | 81.42 nm | 2.78 mV
CCCCCCC(CCCC)C(=O)OCCCCN(CCCCOC(=O)C(CCCC)CCCCCC)CCN1CCN(CCO)CC1 (stereo not shown) [Compound 10-21, ((2-(4-(2-hydroxyethyl)piperazin-1-yl)ethyl)azanediyl)bis(butane-4,1-diyl) bis(2-butyloctanoate)] | 99.41% | 3.89E+04 | 3.23E+06 | 5.03E+07 | 8.74E+07 | 5.77E+07 | 7.72E+06 | 2.44E+05 | 1.62E+05 | 27.96 g | 28.19 g | 28.26 g | 27.90 g | 28.01 g | 27.57 g | 28.63 g | 30.83 g | 0.16 | 72.27 nm | 7.05 mV
CCCCCCCCCCCCCCOC(=O)CCN(CCC(=O)OCCCCCCCCCCCCCC)CCN1CCN(CCN(CCC(=O)OCCCCCCCCCCCCCC)CCC(=O)OCCCCCCCCCCCCCC)CC1 [Comparator 1 (C1), reference compound] | 99.03% | 3.32E+04 | 2.76E+07 | 1.28E+08 | 7.19E+07 | 8.88E+07 | 5.07E+06 | 8.46E+04 | 4.32E+04 | 26.56 g | 25.99 g | 27.21 g | 27.59 g | 27.09 g | 27.17 g | 29.43 g | 30.11 g | 0.16 | 70.96 nm | 9.07 mV
CCCCCCC(CCCC)C(=O)OCCCCN(CCCCOC(=O)C(CCCC)CCCCCC)CCN1CCN(CCN)CC1 (stereo not shown) [Compound 10-44, ((2-(4-(2-aminoethyl)piperazin-1-yl)ethyl)azanediyl)bis(butane-4,1-diyl) bis(2-butyloctanoate)] | 100.06% | 2.87E+04 | 1.61E+07 | 3.62E+07 | 4.98E+07 | 4.24E+07 | 1.09E+06 | 5.87E+04 | 6.12E+04 | 26.84 g | 26.46 g | 27.00 g | 28.13 g | 27.94 g | 28.11 g | 29.31 g | 30.04 g | 0.15 | 67.46 nm | 1.25 mV
CCCCCCCCCCC(O)CN(CCN1CCN(CCN(CC(O)CCCCCCCCCC)CC(O)CCCCCCCCCC)CC1)CCN(CC(O)CCCCCCCCCC)CC(O)CCCCCCCCCC (stereo not shown) [Compound C12-200, 1,1′-((2-(4-(2-((2-(bis(2-hydroxydodecyl)amino)ethyl) (2-hydroxydodecyl)amino)ethyl)piperazin-1-yl)ethyl)azanediyl) bis(dodecan-2-ol), reference compound] | 95.32% | 2.39E+04 | 3.36E+08 | 6.19E+08 | 4.79E+08 | 2.47E+08 | 2.20E+07 | 4.80E+05 | 9.12E+04 | 28.61 g | 27.17 g | 28.62 g | 28.98 g | 28.97 g | 29.23 g | 30.16 g | 31.23 g | 0.27 | 98.11 nm | −5.50 mV
